The results in this text go back to the supplement of paper PMC4862054.

Test [1] relates to HCC1143. The note with it: 72 h. The method in brief:
(§1)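 Two sequential readouts followed a 72 h incubation of breast cancer cell lines with compound at 5 concentrations in 10-fold steps over a compound-specific 10,000-fold range: CellTox Green fluorescence (485/520 nm) for cell death, then CellTiter-Glo luminescence, after 10 min at room temperature, for viability. Each plate was normalised to 0.1 % DMSO and a positive kill control. Dose-response curves were fitted for EC50, censored at the top concentration.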

Test [2] relates to HDQ-P1. The note with it: 72 h. The gist of the method: as §1
The subject of test [3] is CAL-120. Conditions: 72 h. The method, then:
(§2)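 Drug sensitivity and resistance testing (DSRT) of breast cancer cell lines in 384-well plates, 5 concentrations in 10-fold dilutions over a compound-specific 10,000-fold range. After 72 h, cytotoxicity was read by CellTox Green fluorescence and viability by CellTiter-Glo luminescence (multiplexed), normalised to DMSO and benzethonium chloride controls. EC50 is the inflection point of the fitted dose-response curve (bottom asymptote free, so it can be relative for partial curves) and is censored at the highest tested concentration. Rows with DSS 0 (no meaningful response) were excluded.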

The subject of test [4] is MDA-MB-453. The note with it: 72 h. As to the method: as §2
The test system of test [5] is MDA-MB-231. Conditions: 72 h. The method, then:
as §2

The next test relates to MCF-10A. The note with it: 72 h. The method, then:
as §2

For test [6], the system named is CAL-51. The note with it: 72 h. As to the method:
as §2

Test [7] relates to Hs578T. The note with it: 72 h. The method, then:
as §2

Test [8] deals with MDA-MB-453. Description: normalised viability (% of control), CellTiter-Blue; higher = more viable cells (about 100 = DMSO control). The note with it: incubation time: 72 h. The gist of the method:
(§3)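 Vehicle (100) and a positive kill control (0) anchored the normalisation of each plate, and Z'-factor was used for quality control. Breast cancer cell lines in 20 µl suspension were incubated 72 h over compound in 5 µl medium in 384-well plates, followed by CellTiter-Blue at 560/590 nm. The value is normalised viability at a single listed concentration of the series.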

Test [9] relates to BT-474. The description is as above. The note with it: incubation time: 72 h. The method in brief:
as §3

The subject of test [10] is HDQ-P1. The description is as above. The note with it: incubation time: 72 h. The method in brief: as §3
For test [11], the system named is HCC1599. The description is as above. The note with it: incubation time: 72 h. The gist of the method:
as §3

The subject of test [12] is MDA-MB-468. The test is described as above. Conditions: incubation time: 72 h. The gist of the method:
as §3

In test [13] the test system is CAL-148. The test is described as above. Conditions: incubation time: 72 h. The method in brief:
as §3

A further test concerns MDA-MB-436. The note with it: 72 h. The method, then: as §2
Test [14] concerns HCC1937. The note with it: 72 h. The method in brief: (§4)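 Breast cancer cell lines in 20 µl suspension were seeded onto 384-well plates pre-loaded with compound dissolved in 5 µl medium, then incubated 72 h. For viability, 2.5 µl CellTiter-Blue was added for 2 h at 37 °C and fluorescence read at 560/590 nm. Each plate was normalised to vehicle and a positive kill control and checked by Z'-factor. EC50 comes from the fitted percent-inhibition dose-response curve, censored at the highest concentration; rows with zero drug sensitivity score were dropped.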

The subject of test [15] is MDA-MB-468. Conditions: 72 h. The method in brief:
as §4

Test [16] relates to MFM-223. Conditions: 72 h. The method in brief: as §1
Test [17] has as its system DU-4475. Conditions: 72 h. The gist of the method:
as §1

In test [18] the test system is CAL-148. The note with it: 72 h. The gist of the method:
as §1

The subject of test [19] is MFM-223. Conditions: 72 h. The method, then:
as §2
This is another data set of the same source.

Test [20] deals with CAL-85-1. The note with it: 72 h. As to the method:
as §2

Test [21] deals with HCC1937. Conditions: 72 h. As to the method:
as §2
This is another data set of the same source.

Test [22] deals with CAL-148. The note with it: 72 h. The method, then:
as §2
This is another data set of the same source.

The subject of test [23] is DU-4475. The note with it: 72 h. The gist of the method: as §4
The source holds these as a separate data set.

The subject of test [24] is CAL-85-1. Conditions: 72 h. The gist of the method:
as §4
The source holds these as a separate data set.

In test [25] the test system is CAL-51. Conditions: 72 h. The method in brief: as §4
The source holds these as a separate data set.

Test [26] concerns HDQ-P1. Conditions: 72 h. The gist of the method:
as §4
This is another data set of the same source.

Test [27] concerns CAL-148. Conditions: 72 h. The method in brief:
as §4
The source holds these as a separate data set.

Test [28] has as its system BT-549. Conditions: 72 h. As to the method:
as §2

The test system of test [29] is MFM-223. Conditions: 72 h. The method in brief:
as §4
This is another data set of the same source.

Test [30] has as its system BT-549. Conditions: 72 h. The method in brief: as §4
The source holds these as a separate data set.

For test [31], the system named is HCC1143. Conditions: 72 h. The method in brief:
as §4
The source holds these as a separate data set.

The test system of test [32] is CAL-120. The note with it: 72 h. The method in brief: as §4
The source holds these as a separate data set.

In test [33] the test system is MDA-MB-231. The note with it: 72 h. The gist of the method: as §4
The source holds these as a separate data set.

The subject of a further test is SK-BR-3. Conditions: 72 h. The gist of the method:
as §4

Test [34] has as its system BT-474. Conditions: 72 h. The method in brief:
as §4

In test [35] the test system is Hs578T. The note with it: 72 h. The method in brief:
as §4
This is another data set of the same source.

Test [36] relates to HCC1599. Conditions: 72 h. The method in brief: as §4

Several values for one entry are separate records, joined by “and”; a condition that tells them apart may be missing. Equal entries are not always repeated. Bounds are passed on as bounds.

Take `CC(C)c1c(C(=O)Nc2ccccc2)c(-c2ccccc2)c(-c2ccc(F)cc2)n1CC[C@@H](O)C[C@@H](O)CC(=O)O` [Atorvastatin]: the “EC50, CellTiter-Glo” value stood at 2030 nM in the test on HCC1143 [1] and 1250 nM with HDQ-P1 [2]. In addition, the “EC50, CellTox Green” value is 9010 nM with CAL-120 [3]; more than 10000 nM in the test on MDA-MB-453 [4]; 796 nM with MDA-MB-231 [5]; 1940 nM in the test with MCF-10A; 668 nM in the test on CAL-51 [6]; 3780 nM in the test on Hs578T [7].
As to `O=C(O)CCCc1ccc(N(CCCl)CCCl)cc1` [Chlorambucil], the normalised viability worked out at 94.3% in the test on MDA-MB-453 [8] (30 nM); 112% in the test with BT-474 [9] (1000 nM); 94.1% with HDQ-P1 [10] (30 nM); 97.1% in the test with HCC1599 [11] (1000 nM); 68.3% with MDA-MB-468 [12] (1000 nM); 104% in the test with CAL-148 [13] (30 nM). Also, in the test on MDA-MB-436, the “EC50, CellTox Green” value is more than 10000 nM. Further, the entries for the “EC50, CellTiter-Blue viability” value in the test on HCC1937 [14] and in the test on MDA-MB-468 [15] were 731 nM and 5340 nM, respectively.
With `Cn1c(=O)n(-c2ccc(C(C)(C)C#N)cc2)c2c3cc(-c4cnc5ccccc5c4)ccc3ncc21` [Dactolisib], the “EC50, CellTiter-Glo” value in the test on MFM-223 [16] came out at 14.8 nM; in the test with HCC1143 [1], 17.9 nM; in the test with DU-4475 [17], 42.8 nM; in the test on HDQ-P1 [2], 12.8 nM; in the test with CAL-148 [18], 18.7 nM. The “EC50, CellTox Green” value with MFM-223 [19] is 579 nM; in the test on CAL-85-1 [20], 197 nM; with HCC1937 [21] it was 80.7 nM; in the test on CAL-148 [22], 100 nM.
Consider `CO[C@H]1C[C@@H]2CC[C@@H](C)[C@@](O)(O2)C(=O)C(=O)N2CCCC[C@H]2C(=O)O[C@H]([C@H](C)C[C@@H]2CC[C@@H](OCCO)[C@H](OC)C2)CC(=O)[C@H](C)/C=C(\C)[C@@H](O)[C@@H](OC)C(=O)[C@H](C)C[C@H](C)/C=C/C=C/C=C/1C` [Everolimus], for which the “EC50, CellTiter-Glo” value in the test with MFM-223 [16] is 0.29 nM; in the test on HCC1143 [1], 0.39 nM; with DU-4475 [17], 1.24 nM; with HDQ-P1 [2] it was 5.68 nM; in the test with CAL-148 [18] it was 0.38 nM. In addition, the “EC50, CellTiter-Blue viability” value in the test on DU-4475 [23] was determined as 2.34 nM; in the test on CAL-85-1 [24] it was 0.219 nM; with CAL-51 [25], 1.14 nM; in the test on HDQ-P1 [26], 0.35 nM; in the test on CAL-148 [27] it was 0.675 nM; in the test with MFM-223 [29], 0.27 nM. Besides, the “EC50, CellTiter-Blue viability” value in the test on BT-549 [30] is 0.381 nM; in the test with HCC1143 [31] it was 0.14 nM; with CAL-120 [32] it was 0.304 nM; in the test with MDA-MB-231 [33] it was 26.9 nM; in the test with SK-BR-3, 0.945 nM; in the test on BT-474 [34], 0.289 nM. The “EC50, CellTiter-Blue viability” value is 0.13 nM in the test with Hs578T [35], 2.95 nM with HCC1937 [14] and 11.8 nM in the test with HCC1599 [36]. For the same molecule, the normalised viability with MDA-MB-453 [8] (3 nM) was 30.8% and 28.6%; in the test with BT-474 [9] (100 nM) it was 65.9% and 57.5%; in the test on HDQ-P1 [10] (3 nM), 71.3% and 59.9%; with HCC1599 [11] (100 nM), 87% and 69.7%; in the test on MDA-MB-468 [12] (100 nM), 72.6% and 66.8%; in the test on CAL-148 [13] (3 nM), 50.4% and 48.4%. The “EC50, CellTox Green” value was 8.31 nM in the test on MFM-223 [19] and more than 100 nM in the test on BT-549 [28].
